Consider seven molecules from ChEMBL document CHEMBL4680317, “In vitro and in vivo effects of inhibitors on actin and myosin” (Bioorg Med Chem, 2021).

The species named for series [1] is Oryctolagus cuniculus. Kind of series: Inhibition of rabbit muscle F-actin depolymerization incubated for 15 mins by spectrophotometric analysis. Type of series: tissue-based. The conditions noted are these: Muscle tissue, dose 25-100 µM.
The species named for series [2] is Oryctolagus cuniculus. Nature of the series: Inhibition of rabbit muscle G-actin polymerization assessed as polymerized G-actin level at 25 uM incubated for 15 mins by spectrophotometric analysis (reference value: 100 %). Type of series: tissue-based. Further details: scale not given: the % may be the effect or the level left. The conditions noted are these: Muscle tissue.

Series [3] deals with MDA-MB-231. Nature of the series: Induction of cell morphological changes in human MDA-MB-231 cells assessed as membrane blebbing by inverted microscopy. Type of series: functional, cell-based.
In series [4] the test system is MDA-MB-231. Nature of the series: Antimigratory activity against human MDA-MB-231 cells assessed as cell migration at 2.5 uM by light microscopy relative to control. It is filed as functional.
The nature of series [5]: Cardiotoxicity in medaka embryo post hatching 24 hrs assessed as reduction in heart beat at 25 uM measured after 1 hr. It is filed as toxicity. The conditions noted are these: oryzias latipes.
Series [6] addresses Myosin light chain kinase 2, skeletal/cardiac muscle (Oryctolagus cuniculus) (UniProt P07313). Nature of the series: Inhibition of rabbit skeletal muscle myosin-2 ATPase incubated for 20 mins followed by ATP addition and measured after 20 mins. Type of series: tissue-based. The following applies: Skeletal muscle tissue, time 40.0 min.
Series [7] concerns MDA-MB-231. Nature of the series: Antimigratory activity against human MDA-MB-231 cells assessed as minimum effective concentration by light microscopy. Type of series: functional.
In series [8] the test system is MDA-MB-231. Kind of series: Cytotoxicity against human MDA-MB-231 cells assessed as reduction in cell viability incubated for 4 hrs by neutral red uptake assay. The following applies: mda-mb-231, 4 h. Type of series: cell-based.
A short description of series [9]: Cardiotoxicity in medaka embryo post hatching 24 hrs assessed as reduction in heart beat at 1.25 uM measured after 1 hr. It is filed as toxicity. The following applies: oryzias latipes.
The subject of series [10] is MDA-MB-231. Kind of series: Antimigratory activity against human MDA-MB-231 cells assessed as cell migration by light microscopy. Type of series: functional, cell-based.
For series [11], the species on record is Oryctolagus cuniculus. Kind of series: Inhibition of rabbit muscle F-actin depolymerization at 50 to 100 uM incubated for 15 mins by spectrophotometric analysis. Type of series: tissue-based. The following applies: Muscle tissue, dose 50-100 µM.
The test system of series [12] is MDA-MB-231. Kind of series: Induction of cell morphological changes in human MDA-MB-231 cells assessed as membrane blebbing at 500 nM measured after 40 sec by inverted microscopy. It is filed as functional, cell-based.
The subject of series [13] is MDA-MB-231. Kind of series: Antimigratory activity against human MDA-MB-231 cells assessed as cell migration at 10 uM by light microscopy relative to control. It is filed as functional.
Series [14] in a line: Cardiotoxicity in medaka embryo post hatching 24 hrs assessed as reduction in heart beat at 10 uM measured after 1 hr. Type of series: toxicity. The following applies: oryzias latipes.
Series [15] has as its system MDA-MB-231. Nature of the series: Induction of cell morphological changes in human MDA-MB-231 cells assessed as membrane blebbing at 2 uM measured after 30 mins by inverted microscopy. Type of series: functional, cell-based.
The test system of series [16] is MDA-MB-231. Nature of the series: Antimigratory activity against human MDA-MB-231 cells assessed as cell migration at 5 uM by light microscopy relative to control. Type of series: functional.
Series [17] in a line: Cardiotoxicity in medaka embryo post hatching 24 hrs assessed as reduction in heart beat at 17.5 uM measured after 1 hr. The conditions noted are these: oryzias latipes. It is filed as toxicity.

Calls of active or inactive are those of the source. The rule behind the calls is not given here.

Myosin light chain kinase 2, skeletal/cardiac muscle (Oryctolagus cuniculus), sequence (P07313 whole entry): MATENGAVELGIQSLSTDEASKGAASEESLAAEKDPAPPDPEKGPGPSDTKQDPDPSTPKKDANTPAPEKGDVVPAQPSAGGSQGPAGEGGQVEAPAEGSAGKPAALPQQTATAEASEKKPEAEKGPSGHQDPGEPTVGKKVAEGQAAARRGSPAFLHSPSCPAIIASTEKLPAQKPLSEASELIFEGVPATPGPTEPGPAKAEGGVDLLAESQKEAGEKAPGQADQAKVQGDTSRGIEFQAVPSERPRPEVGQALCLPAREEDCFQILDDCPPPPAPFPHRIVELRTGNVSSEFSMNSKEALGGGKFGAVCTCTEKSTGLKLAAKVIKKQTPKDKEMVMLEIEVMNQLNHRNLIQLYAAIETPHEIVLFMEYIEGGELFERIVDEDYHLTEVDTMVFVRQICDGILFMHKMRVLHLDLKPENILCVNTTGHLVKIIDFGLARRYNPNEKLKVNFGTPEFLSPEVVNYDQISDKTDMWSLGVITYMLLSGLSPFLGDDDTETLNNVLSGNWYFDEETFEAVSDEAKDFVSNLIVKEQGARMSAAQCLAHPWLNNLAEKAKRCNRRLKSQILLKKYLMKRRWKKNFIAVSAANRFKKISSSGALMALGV

For the molecule `O=c1c(O)c(-c2ccc(O)c(O)c2)oc2cc(O)cc(O)c12` [QUERCETIN], in the series listed under Oryctolagus cuniculus [1], the inhibition result was “Dose-dependent effect”. The Activity in the series filed under Oryctolagus cuniculus [2] is 74.5%; in series [5], “Non-Toxic”. Also, the result in the series on MDA-MB-231 [3] and in the series on MDA-MB-231 [4] was inactive.
For the molecule `Oc1c(Cl)cc(Cl)cc1-c1[nH]c(Cl)c(Cl)c1Cl` [PENTACHLOROPSEUDILIN], the Activity is 38.4% in the series filed under Oryctolagus cuniculus [2], 62.6% in the series on MDA-MB-231 [4], “Toxic” with MDA-MB-231 [8] and “Toxic” in series [9]. Also, the inhibition entry (in series [6]; in the series on MDA-MB-231 [10]) was “Dose-dependent effect” each time. In the series on MDA-MB-231 [7], the LED was 1 µM.
In the case of `C=C1[C@@H](C)[C@H]2[C@H](Cc3ccccc3)NC(=O)[C@]23OC(=O)/C=C/[C@H](O)CCC[C@@H](C)C/C=C/[C@H]3[C@@H]1O` [CYTOCHALASIN B], the inhibition result in the series listed under Oryctolagus cuniculus [11] was “Active”. The Activity in the series listed under Oryctolagus cuniculus [2] was 43.5%; in the series with MDA-MB-231 [13], 8.2%; in the series on MDA-MB-231 [8], “Toxic”; in series [14] it was “Non-Toxic”. For the same molecule, the outcome in the series on MDA-MB-231 [12] was Active.
Regarding `Oc1c(Br)cc(Br)cc1-c1[nH]c(Br)c(Br)c1Br` [PENTABROMOPSEUDILIN], the Activity in the series listed under Oryctolagus cuniculus [2] is 104%; in the series on MDA-MB-231 [4] it was 67%; with MDA-MB-231 [8], “Toxic”; in [9], “Toxic”. Besides, the result in the series on MDA-MB-231 [3] was inactive. In addition, the LED in the series with MDA-MB-231 [7] amounted to 1 µM. In the series with MDA-MB-231 [10], the inhibition entry is “Dose-dependent effect”.
With `Cc1ccc2c(c1)C(=O)[C@]1(O)CCN(c3ccccc3)C1=N2`, the inhibition entry in the series filed under Oryctolagus cuniculus [11] was “Active”. The Activity in the series filed under Oryctolagus cuniculus [2] was 78.7%; in the series with MDA-MB-231 [16] it was 136.6%; in series [14] it was “Toxic”; in series [17] it was “Non-Toxic”. For the same molecule, in the series on MDA-MB-231 [15], the outcome was inactive. Moreover, the LED with MDA-MB-231 [7] was 5 µM.
As for `Oc1cc(O)c2c(c1)O[C@H](c1cc(O)c(O)c(O)c1)[C@H](O)C2` [EPIGALLOCATECHIN], the Activity in the series filed under Oryctolagus cuniculus [2] is 118%; in series [5], “Non-Toxic”. For the same molecule, the result in the series on MDA-MB-231 [3] and with MDA-MB-231 [4] was inactive.
On to `O=c1c(O)c(-c2ccc(O)cc2)oc2cc(O)cc(O)c12` [KAEMPFEROL], for which the inhibition entry in the series filed under Oryctolagus cuniculus [1] is “Dose-dependent effect”. Besides, the Activity in the series listed under Oryctolagus cuniculus [2] was 71.8%; in the series on MDA-MB-231 [4], 70%; in series [5] it was “Non-Toxic”. Also, the result in the series on MDA-MB-231 [3] was inactive. Moreover, the LED with MDA-MB-231 [7] came to 2.5 µM.
